Measurements as given in patent US4684664A, “Derivatives of β-(4-isocyano-1,2,3,4-diepoxycyclopentyl) acrylic acid” (Kureha Kagaku Kogyo Kabushiki Kaisha, priority 1984, dated 1987).

Tests used:
Type in all cases: cell-based
[1] = system: Candida albicans IAM 4905; test: Antifungal activity, agar-dilution MIC, organism No. 29; settings: Candida albicans, IAM4905; Organism No. 29, bouillon-agar; read-out: Minimum Inhibitory Concentration
From the text: (§1) Agar-dilution method was used for determination of the antibacterial activity and antifungal activity while using bouillon-agar culture medium, and the minimum inhibitory concentration of the specimen was expressed by μg/ml of the culture medium.

Enterobacter cloacae 963 = test: Antibacterial activity, agar-dilution MIC, organism No. 24; settings: Enterobacter cloacae, 963; Organism No. 24, bouillon-agar; read-out: Minimum Inhibitory Concentration
From the text: as §1

[2] = system: Salmonella shottmuelleri 8006; test: Antibacterial activity, agar-dilution MIC, organism No. 11; settings: Salmonella, 8006; Organism No. 11, bouillon-agar; read-out: Minimum Inhibitory Concentration
From the text: as §1

[3] = system: Streptococcus faecium IFO 3826; test: Antibacterial activity, agar-dilution MIC, organism No. 27; settings: Enterococcus faecium, IFO3826; Organism No. 27, bouillon-agar; read-out: Minimum Inhibitory Concentration
From the text: as §1

[4] = system: Proteus morganii IFO 3848; test: Antibacterial activity, agar-dilution MIC, organism No. 18; settings: Morganella morganii, IFO3848; Organism No. 18, bouillon-agar; read-out: Minimum Inhibitory Concentration
From the text: as §1

[5] = system: Escherichia coli NIHJ-JC-2; test: Antibacterial activity, agar-dilution MIC, organism No. 5; settings: Escherichia coli, NIHJJC2; Organism No. 5, bouillon-agar; read-out: Minimum Inhibitory Concentration
From the text: as §1

[6] = system: Salmonella enteritidis G 14; test: Antibacterial activity, agar-dilution MIC, organism No. 12; settings: Salmonella enterica, ENTERITIDIS; Organism No. 12, bouillon-agar; read-out: Minimum Inhibitory Concentration
From the text: as §1

[7] = system: Pseudomonas aeruginosa PAO 1; test: Antibacterial activity, agar-dilution MIC, organism No. 17; settings: Pseudomonas aeruginosa, PAO1; Organism No. 17, bouillon-agar; read-out: Minimum Inhibitory Concentration
From the text: as §1

[8] = system: Escherichia coli K12 C600 IAM 1264; test: Antibacterial activity, agar-dilution MIC, organism No. 6; settings: Escherichia coli, IAM1264; Organism No. 6, bouillon-agar; read-out: Minimum Inhibitory Concentration
From the text: as §1

Proteus vulgaris OX-19 = test: Antibacterial activity, agar-dilution MIC, organism No. 20; settings: Proteus vulgaris, OX19; Organism No. 20, bouillon-agar; read-out: Minimum Inhibitory Concentration
From the text: as §1

[9] = system: Bacillus subtilis ATCC 6633; test: Antibacterial activity, agar-dilution MIC, organism No. 14; settings: Bacillus subtilis, ATCC6633; Organism No. 14, bouillon-agar; read-out: Minimum Inhibitory Concentration
From the text: as §1

[10] = system: Enterobacter aerogenes ATCC 13048; test: Antibacterial activity, agar-dilution MIC, organism No. 23; settings: Klebsiella aerogenes, ATCC13048; Organism No. 23, bouillon-agar; read-out: Minimum Inhibitory Concentration
From the text: as §1

[11] = system: Salmonella paratyphi-A 1015; test: Antibacterial activity, agar-dilution MIC, organism No. 10; settings: Salmonella enterica, PARATYPHI, read-out: Minimum Inhibitory Concentration
From the text: as §1

[12] = system: Pseudomonas aeruginosa NCTC 10490; test: Antibacterial activity, agar-dilution MIC, organism No. 16; settings: Pseudomonas aeruginosa, NCTC10490; Organism No. 16, bouillon-agar; read-out: Minimum Inhibitory Concentration
From the text: as §1

[13] = system: Proteus mirabilis IFO 3849; test: Antibacterial activity, agar-dilution MIC, organism No. 19; settings: Proteus mirabilis, IFO3849; Organism No. 19, bouillon-agar; read-out: Minimum Inhibitory Concentration
From the text: as §1

[14] = system: Aspergillus niger IFO 6342; test: Antifungal activity, agar-dilution MIC, organism No. 30; settings: Aspergillus niger, IFO6342; Organism No. 30, bouillon-agar; read-out: Minimum Inhibitory Concentration
From the text: as §1

[15] = system: Staphylococcus aureus Terajima; test: Antibacterial activity, agar-dilution MIC, organism No. 2; settings: Staphylococcus aureus; Organism No. 2, bouillon-agar; read-out: Minimum Inhibitory Concentration
From the text: as §1

[16] = system: Staphylococcus aureus MS 353; test: Antibacterial activity, agar-dilution MIC, organism No. 3; settings: Staphylococcus aureus, MS353; Organism No. 3, bouillon-agar; read-out: Minimum Inhibitory Concentration
From the text: as §1

[17] = system: Micrococcus luteus ATCC 9341; test: Antibacterial activity, agar-dilution MIC, organism No. 25; settings: Micrococcus luteus, ATCC9341; Organism No. 25, bouillon-agar; read-out: Minimum Inhibitory Concentration
From the text: as §1

[18] = system: Streptococcus pyogenes Cook; test: Antibacterial activity, agar-dilution MIC, organism No. 4; settings: Streptococcus pyogenes; Organism No. 4, bouillon-agar; read-out: Minimum Inhibitory Concentration
From the text: as §1

Salmonella typhi 901 = test: Antibacterial activity, agar-dilution MIC, organism No. 9; settings: Salmonella enterica, TYPHI, read-out: Minimum Inhibitory Concentration
From the text: as §1

[19] = system: Streptococcus pyogenes IFO 3340; test: Antibacterial activity, agar-dilution MIC, organism No. 26; settings: Streptococcus pyogenes, IFO3340; Organism No. 26, bouillon-agar; read-out: Minimum Inhibitory Concentration
From the text: as §1

[20] = system: Pseudomonas aeruginosa IFO 3445; test: Antibacterial activity, agar-dilution MIC, organism No. 15; settings: Pseudomonas aeruginosa, IFO3445; Organism No. 15, bouillon-agar; read-out: Minimum Inhibitory Concentration
From the text: as §1

[21] = system: Salmonella typhimurium IID 971; test: Antibacterial activity, agar-dilution MIC, organism No. 8; settings: Salmonella enterica; Organism No. 8, bouillon-agar; read-out: Minimum Inhibitory Concentration
From the text: as §1

[22] = system: Klebsiella pneumoniae PCI-602; test: Antibacterial activity, agar-dilution MIC, organism No. 7; settings: Klebsiella pneumoniae, PCI602; Organism No. 7, bouillon-agar; read-out: Minimum Inhibitory Concentration
From the text: as §1

[23] = system: Mycoplasma pneumoniae IID817; test: Antimycoplasmal activity, MIC by phenol red colour change, organism No. 28; settings: Mycoplasma, IID817; Organism No. 28, PPLO broth + 1% glucose, 37° C.; read-out: Minimum Inhibitory Concentration (MIC)
Protocol: Mycoplasma pneumoniae IID817 was used as the test microorganism in a culture medium prepared by adding 1% of glucose to "PPLO broth (manufactured by Difco Co.) liquid culture medium" at 37° C. with phenol red as an indicator, thereby culturing the test microorganism.

[24] = system: Staphylococcus aureus FDA 209PJc-1; test: Antibacterial activity, agar-dilution MIC, organism No. 1; settings: Staphylococcus aureus, FDA209PJC1; Organism No. 1, bouillon-agar; read-out: Minimum Inhibitory Concentration
From the text: as §1

[25] = system: Proteus rettgeri IFO 3850; test: Antibacterial activity, agar-dilution MIC, organism No. 22; settings: Providencia rettgeri, IFO3850; Organism No. 22, bouillon-agar; read-out: Minimum Inhibitory Concentration
From the text: as §1

Proteus vulgaris HX-19 = test: Antibacterial activity, agar-dilution MIC, organism No. 21; settings: Proteus vulgaris, HX19; Organism No. 21, bouillon-agar; read-out: Minimum Inhibitory Concentration
From the text: as §1

Measured: MIC

[C-]#[N+]C12CC3(/C=C/C(=O)Nc4cccc(C)c4)OC3C1O2 (stereo not drawn) [compound 38]
6.25 µg/mL: [18] | [21]
0.05 µg/mL: Proteus vulgaris OX-19 | Proteus vulgaris HX-19
12.5 µg/mL: [3] | [4] | [5] | [8]
3.13 µg/mL: [9] | [25]
1.56 µg/mL: [6] | [14] | Salmonella typhi 901
0.78 µg/mL: [1]
< 0.2 µg/mL: [23]
0.39 µg/mL: [19]
< 0.05 µg/mL: [2] | [11] | [16] | [17] | [22] | [24]
0.1 µg/mL: [15]
> 200 µg/mL: all other assays above

[C-]#[N+]C12CC3(/C=C/C(=O)N[C@@H](CCC(=O)OC)C(=O)OC)OC3C1O2 (stereo partly drawn) [Compound No. 26]
12.5 µg/mL: [17] | Proteus vulgaris HX-19
25 µg/mL: Proteus vulgaris OX-19 | [16] | [24]
50 µg/mL: [2] | [6] | [11] | [18] | Salmonella typhi 901 | [19] | [22]
100 µg/mL: [1] | [4] | [5] | [8] | [9] | [14] | [15] | [21]
1.56 µg/mL: [23]
> 200 µg/mL: all other assays above

[C-]#[N+]C12CC3(/C=C/C(=O)Nc4ccccc4Cl)OC3C1O2 (stereo not drawn) [compound 42]
6.25 µg/mL: [9] | [11]
25 µg/mL: [3] | [6] | [21]
0.78 µg/mL: [22]
3.13 µg/mL: [2] | [4] | Proteus vulgaris OX-19 | [14]
0.39 µg/mL: [16] | [24]
0.1 µg/mL: Proteus vulgaris HX-19
< 0.05 µg/mL: [17]
12.5 µg/mL: Salmonella typhi 901
< 0.2 µg/mL: [23]
1.56 µg/mL: [1] | [15] | [19]
> 200 µg/mL: all other assays above
